Structures are written as SMILES.

For one experiment, the system named is A549. Put plainly: Antiproliferative activity against human A549 cells assessed as reduction in cell viability. The experiment is classed as functional, cell-based.
For experiment [1], the target named is T1, Glutaminase kidney isoform, mitochondrial (Homo sapiens, UniProt O94925).
T1 sequence (O94925 whole entry): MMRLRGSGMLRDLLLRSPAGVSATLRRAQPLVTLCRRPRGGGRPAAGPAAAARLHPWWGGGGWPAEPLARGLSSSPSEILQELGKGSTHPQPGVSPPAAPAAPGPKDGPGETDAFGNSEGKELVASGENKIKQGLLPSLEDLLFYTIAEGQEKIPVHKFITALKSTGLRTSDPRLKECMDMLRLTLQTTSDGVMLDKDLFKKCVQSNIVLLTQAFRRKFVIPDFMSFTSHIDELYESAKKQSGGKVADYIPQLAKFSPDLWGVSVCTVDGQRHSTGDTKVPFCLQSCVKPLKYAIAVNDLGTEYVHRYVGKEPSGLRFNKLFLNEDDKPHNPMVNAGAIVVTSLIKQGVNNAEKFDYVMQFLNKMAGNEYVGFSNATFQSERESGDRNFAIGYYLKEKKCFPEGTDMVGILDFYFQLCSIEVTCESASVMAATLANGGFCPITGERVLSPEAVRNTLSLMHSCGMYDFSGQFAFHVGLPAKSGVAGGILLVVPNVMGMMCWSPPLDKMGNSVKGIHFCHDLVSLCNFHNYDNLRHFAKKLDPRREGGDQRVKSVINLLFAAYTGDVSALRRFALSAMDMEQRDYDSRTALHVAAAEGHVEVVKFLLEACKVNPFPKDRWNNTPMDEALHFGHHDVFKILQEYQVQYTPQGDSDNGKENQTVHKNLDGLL
The experiment is described as follows: Inhibition of GLS1 (unknown origin).

A further experiment deals with HCT-116. The experiment is described as follows: cells. The note with it: Homo sapiens.

On to `O=C(Cc1ccccc1)Nc1nnc(N2CCC(CCOCc3cccc(C(=O)NCCN4CCCC4)c3)CC2)s1`, for which the 50% inhibitory concentration (IC50) – broadly, the concentration needed to halve the response being measured – with A549 stood at 9.68 µM; in experiment [1], 0.489 µM; with HCT-116 it was 8.95 µM.
For `C=CCCC(=O)N1CCC(CNC(=O)c2cccc(COCCC3CCN(c4nnc(NC(=O)Cc5ccccc5)s4)CC3)c2)CC1`, in that order: 3.52 µM, 0.35 µM and 4.03 µM.
For `O=C(Cc1ccccc1)Nc1nnc(N2CCC(OCc3ccc(C(=O)NCCN4CCCC4)cc3)CC2)s1` the same measures were 1.25 µM, 1.25 µM and 3.81 µM.
With `CC(C)CNC(=O)c1ccc(CN2CCN(c3nnc(NC(=O)Cc4ccccc4)s3)CC2)cc1`, the half-inhibitory concentration (IC50) was 2.53 µM with A549, 0.146 µM in experiment [1] and 1.09 µM with HCT-116.
For `CN1CCC(CNC(=O)c2ccc(COC3CCN(c4nnc(NC(=O)Cc5ccccc5)s4)CC3)cc2)CC1` the same measures were over 10 µM, over 10 µM and over 10 µM.
For `O=C(Cc1ccccc1)Nc1nnc(N2CCN(Cc3ccc(C(=O)NC4CCCC4)cc3)CC2)s1`, in that order: 1.09 µM, 0.132 µM and 1.49 µM.
`CCN(CC)CCNC(=O)c1cccc(COCCC2CCN(c3nnc(NC(=O)Cc4ccccc4)s3)CC2)c1`: the IC50 was 7.51 µM in the experiment with A549, 0.621 µM in experiment [1] and 9.03 µM in the experiment on HCT-116.
For `O=C(Cc1ccccc1)Nc1nnc(N2CCN(Cc3cccc(C(=O)NCCN4CCCCC4)c3)CC2)s1` the same measures were 2.03 µM, 0.212 µM and 1.67 µM.
On to `O=C(Cc1ccccc1)Nc1nnc(N2CCN(Cc3ccc(C(=O)NCCNc4ccccc4)cc3)CC2)s1`, for which the IC50 turned out to be 1.22 µM in the experiment with A549, 0.106 µM in experiment [1] and 1.09 µM in the experiment on HCT-116.
Regarding `CC(C)c1ccc(CNC(=O)c2cccc(CN3CCN(c4nnc(NC(=O)Cc5ccccc5)s4)CC3)c2)cc1`, the concentration for half-maximal inhibition (IC50) with A549 and in the experiment on HCT-116 was over 10 µM in each case.
Take `CC(C)N1CCC(CNC(=O)c2ccc(COCCC3CCN(c4nnc(NC(=O)Cc5ccccc5)s4)CC3)cc2)CC1`: the concentration for half-maximal inhibition (IC50) with A549 was determined as 2.24 µM; in experiment [1], 0.365 µM; in the experiment on HCT-116, 3.05 µM.
For `O=C(Cc1ccccc1)Nc1nnc(CCc2ccc(C(=O)NCCN3CCCC3)cc2)s1`, in that order: over 10 µM, over 10 µM and over 10 µM.
For `O=C(Cc1ccccc1)Nc1nnc(N2CCN(Cc3ccc(C(=O)NCCN4CCCC4)cc3)CC2)s1`, the 50% inhibitory concentration (IC50) with A549 was 3.65 µM; in experiment [1], 0.163 µM; in the experiment with HCT-116, 1.66 µM.
For `CN1CCC(CNC(=O)c2cccc(COCCC3CCN(c4nnc(NC(=O)Cc5ccccc5)s4)CC3)c2)CC1` the same measures were 9.07 µM, 0.802 µM and 8.12 µM.
Take `O=C(Cc1ccccc1)Nc1nnc(N2CCN(Cc3ccc(C(=O)NCc4cccc(C(F)(F)F)c4)cc3)CC2)s1`: the figures for the half-inhibitory concentration (IC50) (in the experiment on A549; in experiment [1]; in the experiment with HCT-116) were 1.85 µM, 0.253 µM and 1.49 µM, respectively.
For `CCCCNC(=O)c1ccc(COCC2CCN(c3nnc(NC(=O)Cc4ccccc4)s3)CC2)cc1` the same measures were 5.84 µM, 0.53 µM and 4.98 µM.
For `O=C(Cc1ccccc1)Nc1nnc(N2CCN(Cc3ccc(C(=O)NCCc4ccc(F)cc4)cc3)CC2)s1` the same measures were 2.04 µM, 0.3 µM and 0.57 µM.
For `O=C(Cc1ccccc1)Nc1nnc(N2CCC(CCOCc3cccc(C(=O)N4CCN(c5cccc(F)c5)CC4)c3)CC2)s1` the same measures were 7.42 µM, 0.546 µM and 8.52 µM.
On to `CCN(CC)CCNC(=O)c1ccc(CN2CCN(c3nnc(NC(=O)Cc4ccccc4)s3)CC2)cc1`, for which the half-maximal inhibitory concentration (IC50) in the experiment with A549 came to 2.07 µM; in experiment [1], 0.264 µM; with HCT-116, 2.86 µM.
For `CCCCN1CCC(CNC(=O)c2ccc(COCCC3CCN(c4nnc(NC(=O)Cc5ccccc5)s4)CC3)cc2)CC1` the same measures were 1.29 µM, 0.12 µM and 0.91 µM.
For `CN1CCC(CNC(=O)c2cccc(CN3CCN(c4nnc(NC(=O)Cc5ccccc5)s4)CC3)c2)CC1`, in that order: 3.96 µM, 0.432 µM and 1.56 µM.
For `Cc1ccccc1CN1CCC(CNC(=O)c2ccc(COCCC3CCN(c4nnc(NC(=O)Cc5ccccc5)s4)CC3)cc2)CC1` the same measures were 1.26 µM, 0.135 µM and 0.81 µM.
As for `O=C(Cc1ccccc1)Nc1nnc(N2CCN(Cc3cccc(C(=O)NCCc4ccc(F)cc4)c3)CC2)s1`, the 50% inhibitory concentration (IC50) in the experiment with A549 and in the experiment with HCT-116 was over 10 µM each time.
Take `CCN(CC)CCNC(=O)c1cccc(CN2CCN(c3nnc(NC(=O)Cc4ccccc4)s3)CC2)c1`: the IC50 in the experiment with A549 came to 2.42 µM; in experiment [1] it was 0.345 µM; in the experiment on HCT-116, 1.49 µM.
For `O=C(Cc1ccccc1)Nc1nnc(CCc2ccc(C(=O)N3CCCCC3)cc2)s1` the same measures were over 10 µM, over 10 µM and over 10 µM.
For `CN1CCN(c2cccc(C(=O)Nc3ccc(CN4CCN(c5nnc(NC(=O)Cc6ccccc6)s5)CC4)cc3)c2)CC1`, in that order: 1.05 µM, 0.123 µM and 1.26 µM.
With `CC(C)N1CCC(CNC(=O)c2cccc(COCCC3CCN(c4nnc(NC(=O)Cc5ccccc5)s4)CC3)c2)CC1`, the half-maximal inhibitory concentration (IC50) in the experiment on A549 and in the experiment on HCT-116 was over 10 µM each time.
Consider `COCCNC(=O)c1ccc(CN2CCN(c3nnc(NC(=O)Cc4ccccc4)s3)CC2)cc1`, for which the IC50 (with A549; in experiment [1]; with HCT-116) was over 10 µM in each case.
Take `CCCNC(=O)c1ccc(CCc2nnc(NC(=O)Cc3ccccc3)s2)cc1`: the IC50 (in the experiment with A549; in experiment [1]; in the experiment with HCT-116) was over 10 µM throughout.
For the compound `O=C(Cc1ccccc1)Nc1nnc(N2CCC(CCOCc3cccc(C(=O)NCC4CCN(Cc5cc(F)cc(F)c5)CC4)c3)CC2)s1`, the IC50 was found to be 0.98 µM in the experiment with A549, 0.126 µM in experiment [1] and 0.69 µM in the experiment on HCT-116.
For `CN1CCN(c2cccc(C(=O)Nc3cccc(CN4CCN(c5nnc(NC(=O)Cc6ccccc6)s5)CC4)c3)c2)CC1` the same measures were 0.98 µM, 0.077 µM and 1.19 µM.
For `CCCNC(=O)c1ccc(COC2CCN(c3nnc(NC(=O)Cc4ccccc4)s3)CC2)cc1`, in that order: 1.08 µM, 1.08 µM and 4.08 µM.
For `O=C(Cc1ccccc1)Nc1nnc(N2CCC(CCOCc3ccc(C(=O)NCC4CCN(Cc5cc(F)cc(F)c5)CC4)cc3)CC2)s1` the same measures were 1.89 µM, 0.12 µM and 0.8 µM.
As for `O=C(Cc1ccccc1)Nc1nnc(N2CCN(Cc3cccc(C(=O)NCc4ccc(C(F)(F)F)cc4)c3)CC2)s1`, the IC50 in the experiment with A549 and in the experiment with HCT-116 was over 10 µM in each case.
On to `O=C(Cc1ccccc1)Nc1nnc(N2CCN(Cc3ccc(C(=O)N4CCC(CO)CC4)cc3)CC2)s1`, for which the figures for the IC50 (in the experiment with A549; in experiment [1]; with HCT-116) were 4.06 µM, 0.363 µM and 3.92 µM, respectively.
Consider `O=C(Cc1ccccc1)Nc1ccc(CN2CCN(c3nnc(NC(=O)Cc4ccccc4)s3)CC2)cc1`, for which the IC50 in the experiment on A549 and in the experiment with HCT-116 was over 10 µM in each case.
Turning to `CCCCN1CCC(CNC(=O)c2cccc(COCCC3CCN(c4nnc(NC(=O)Cc5ccccc5)s4)CC3)c2)CC1`, the IC50 in the experiment on A549 worked out at 1.55 µM; in experiment [1], 0.16 µM; in the experiment on HCT-116, 1.08 µM.
`Cc1cccc(CN(C)C(=O)c2ccc(CN3CCN(c4nnc(NC(=O)Cc5ccccc5)s4)CC3)cc2)c1`: the concentration for half-maximal inhibition (IC50) with A549 is over 10 µM; in experiment [1] it was over 1 µM; in the experiment with HCT-116, over 10 µM.
Regarding `CCN(CC)CCNC(=O)c1ccc(CCc2nnc(NC(=O)Cc3ccccc3)s2)cc1`, the concentration for half-maximal inhibition (IC50) (in the experiment with A549; in experiment [1]; with HCT-116) was over 10 µM in each case.
For the compound `CCN1CCC(NC(=O)c2ccc(COC3CCN(c4nnc(NC(=O)Cc5ccccc5)s4)CC3)cc2)CC1`, the IC50 in the experiment with A549 was over 10 µM; in experiment [1], 2.55 µM; with HCT-116 it was over 10 µM.
With `CN1CCN(c2ccc(NC(=O)c3ccc(CN4CCN(c5nnc(NC(=O)Cc6ccccc6)s5)CC4)cc3)cc2)CC1`, the half-maximal inhibitory concentration (IC50) worked out at 1.28 µM in the experiment with A549, 0.25 µM in experiment [1] and 0.67 µM with HCT-116.
For `O=C(Cc1ccccc1)Nc1nnc(N2CCN(Cc3ccc(C(=O)NCCN4CCCCC4)cc3)CC2)s1` the same measures were 3.28 µM, 0.162 µM and 1.09 µM.
In the case of `CCN(CC)CCNC(=O)c1ccc(COCCC2CCN(c3nnc(NC(=O)Cc4ccccc4)s3)CC2)cc1`, the IC50 with A549 was 4.38 µM; in experiment [1], 0.44 µM; in the experiment on HCT-116, 1.2 µM.
In the case of `CN1CCC(CNC(=O)c2ccc(CN3CCN(c4nnc(NC(=O)Cc5ccccc5)s4)CC3)cc2)CC1`, the half-maximal inhibitory concentration (IC50) (in the experiment with A549; in experiment [1]; in the experiment with HCT-116) was over 10 µM in each case.
As for `O=C(Cc1ccccc1)Nc1cccc(CN2CCN(c3nnc(NC(=O)Cc4ccccc4)s3)CC2)c1`, the IC50 in the experiment with A549 and in the experiment on HCT-116 was over 10 µM each time.

The values are drawn from ChEMBL document CHEMBL5352409, “Design, synthesis, and pharmacological evaluation of 2-(1-(1,3,4-thiadiazol-2-yl)piperidin-4-yl)ethan-1-ol analogs as novel glutaminase 1 inhibitors” (Eur J Med Chem, 2022).
